Experimental data published in publication PMC11513924, “Addressing the Intracellular Vestibule of the Plasmodial Lactate Transporter PfFNT by p-Substituted Inhibitors Amplifies In Vitro Activity” (Journal of Medicinal Chemistry, 2024).

What follows are molecules tested on Plasmodium falciparum 3D7 parasites (assay: P. falciparum 3D7 culture growth assay in erythrocytes (in vitro activity)). Conditions: 3D7.
Type: cell-based
Protocol: The parasitemia was measured using an LSR II FACS (BD Biosciences) as described.[34],[35] Growth was assessed as % of untreated control. EC50 curves were plotted using Graph Pad Prism.
Transport assays in yeast were done in triplicate biological replicates. At least nine technical replicates were measured around the IC50 value, concentrations with no or full inhibition were determined from at least three technical replicates. […] IC50 and EC50 curves were fitted by the Hill equation with variable slope (Graph Pad Prism 10). Error bars denote ± SEM (for n ≥ 3) or ± range (for n = 2). […] Cytotoxicity was determined from biological triplicates; error is shown as SEM.
In the case of `Nc1ccc(C(=O)/C=C(\O)C(F)(F)C(F)(F)F)cn1` [7b, 1-(6-Aminopyridin-3-yl)-4,4,5,5,5-pentafluoro-3-hydroxypent-2-en-1-one], the “times lower in vitro activity (vs 7e)” value is reported as “at least 3 times”.

Same assay, conditions: Plasmodium falciparum, 3D7, Erythrocyte, 48 h, read-out: EC50 (in vitro, 3D7)
`O=C(/C=C(\O)C(F)(F)C(F)(F)C(F)(F)F)c1cccnc1` [3b, 4,4,5,5,6,6,6-Heptafluoro-3-hydroxy-1-(pyridin-3-yl)hex-2-en-1-on] showed an EC50 of 1170 ± 30 nM.

Same assay, conditions: Plasmodium falciparum, 3D7, Erythrocyte, 48 h; 50 nM compound, % of untreated control; read-out: % Growth at 50 nM (in vitro, 3D7)
Work on `O=C(/C=C(\O)C(F)(F)C(F)(F)F)c1ccc(NCc2ccccc2)nc1` [7a, 1-[6-(Benzylamino)pyridin-3-yl]-4,4,5,5,5-pentafluoro-3-hydroxypent-2-en-1-one] yielded an activity at 0.05 µM of 71%.
With `Nc1ccc(C(=O)/C=C(\O)C(F)(F)C(F)(F)F)cn1` [7b, 1-(6-Aminopyridin-3-yl)-4,4,5,5,5-pentafluoro-3-hydroxypent-2-en-1-one] the activity at 0.05 µM was 79%.
`CNc1ccc(C(=O)/C=C(\O)C(F)(F)C(F)(F)F)cn1` [7c, 4,4,5,5,5-Pentafluoro-3-hydroxy-1-(6-(methylamino)pyridin-3-yl)pent-2-en-1-one] was tested, and the activity at 0.05 µM was 103%.
Molecule `CCNc1ccc(C(=O)/C=C(\O)C(F)(F)C(F)(F)F)cn1` [7d, 1-(6-(Ethylamino)pyridin-3-yl)-4,4,5,5,5-pentafluoro-3-hydroxypent-2-en-1-one] has an activity at 0.05 µM of 45%.

Same assay, conditions: Plasmodium falciparum, 3D7, Erythrocyte, 48 h; 100 nM compound, % of untreated control; read-out: % Growth at 100 nM (in vitro, 3D7)
With `O=C(/C=C(\O)C(F)(F)C(F)(F)F)c1ccc(NCc2ccccc2)nc1` [7a, 1-[6-(Benzylamino)pyridin-3-yl]-4,4,5,5,5-pentafluoro-3-hydroxypent-2-en-1-one] the activity at 0.1 µM was 32%.
For `Nc1ccc(C(=O)/C=C(\O)C(F)(F)C(F)(F)F)cn1` [7b, 1-(6-Aminopyridin-3-yl)-4,4,5,5,5-pentafluoro-3-hydroxypent-2-en-1-one], the activity at 0.1 µM was 65%.
For `CNc1ccc(C(=O)/C=C(\O)C(F)(F)C(F)(F)F)cn1` [7c, 4,4,5,5,5-Pentafluoro-3-hydroxy-1-(6-(methylamino)pyridin-3-yl)pent-2-en-1-one], the activity at 0.1 µM was 97%.
`CCNc1ccc(C(=O)/C=C(\O)C(F)(F)C(F)(F)F)cn1` [7d, 1-(6-(Ethylamino)pyridin-3-yl)-4,4,5,5,5-pentafluoro-3-hydroxypent-2-en-1-one] showed an activity at 0.1 µM of 13%.

Same assay, conditions: Plasmodium falciparum, 3D7, Erythrocyte, 48 h; 200 nM compound, % of untreated control; read-out: % Growth at 200 nM (in vitro, 3D7)
`O=C(/C=C(\O)C(F)(F)C(F)(F)F)c1ccc(NCc2ccccc2)nc1` [7a, 1-[6-(Benzylamino)pyridin-3-yl]-4,4,5,5,5-pentafluoro-3-hydroxypent-2-en-1-one] showed an activity at 0.2 µM of 14%.
Work on `Nc1ccc(C(=O)/C=C(\O)C(F)(F)C(F)(F)F)cn1` [7b, 1-(6-Aminopyridin-3-yl)-4,4,5,5,5-pentafluoro-3-hydroxypent-2-en-1-one] yielded an activity at 0.2 µM of 29%.
For `CNc1ccc(C(=O)/C=C(\O)C(F)(F)C(F)(F)F)cn1` [7c, 4,4,5,5,5-Pentafluoro-3-hydroxy-1-(6-(methylamino)pyridin-3-yl)pent-2-en-1-one], the activity at 0.2 µM was 85%.
`CCNc1ccc(C(=O)/C=C(\O)C(F)(F)C(F)(F)F)cn1` [7d, 1-(6-(Ethylamino)pyridin-3-yl)-4,4,5,5,5-pentafluoro-3-hydroxypent-2-en-1-one] gave an activity at 0.2 µM of 6%.

Same assay, conditions: Plasmodium falciparum, 3D7, Erythrocyte; 48 h, cultures in erythrocytes; read-out: EC50 (in vitro, 3D7)
With `O=C(/C=C(\O)C(F)(F)c1ccccc1)c1cccnc1` [3a, 4,4-Difluoro-3-hydroxy-4-phenyl-1-(pyridin-3-yl)but-2-en-1-one] the EC50 was 36600 ± 11100 nM.
Molecule `COC(F)(F)C(F)(F)/C(O)=C/C(=O)c1cccnc1` [3c, 4,4,5,5-Tetrafluoro-3-hydroxy-5-methoxy-1-(pyridin-3-yl)pent-2-en-1-one] has an EC50 of 3390 ± 10 nM.
For `O=C(/C=C(\O)C(F)(F)C(F)(F)F)c1ccc(NCc2ccccc2)nc1` [7a, 1-[6-(Benzylamino)pyridin-3-yl]-4,4,5,5,5-pentafluoro-3-hydroxypent-2-en-1-one], the EC50 was 77.9 nM.

What follows are molecules tested against T1, PfFNT (Plasmodium falciparum, UniProt O77389) (assay: Fluorescence cross-correlation spectroscopy (FCCS) competition binding to solubilized PfFNT-GFP). Conditions: not given.
T1 construct: expressed in transfected cells; membranes solubilized
T1 sequence (O77389 1-309): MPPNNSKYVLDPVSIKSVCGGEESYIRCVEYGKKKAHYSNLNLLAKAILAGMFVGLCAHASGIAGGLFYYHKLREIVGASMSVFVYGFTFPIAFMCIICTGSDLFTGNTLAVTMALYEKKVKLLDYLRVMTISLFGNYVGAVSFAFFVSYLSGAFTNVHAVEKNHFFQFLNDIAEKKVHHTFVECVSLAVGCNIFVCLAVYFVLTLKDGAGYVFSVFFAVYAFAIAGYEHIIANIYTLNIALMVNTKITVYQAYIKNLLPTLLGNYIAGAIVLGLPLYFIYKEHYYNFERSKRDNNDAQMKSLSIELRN
Protocol: FCCS measurements were conducted and analyzed as before.[20],[30] Briefly, membranes of stably transfected cells expressing PfFNT with a C-terminal GFP (green) were solubilized. BH267.meta 2 fused with DY647 (red) was used as a tracer to monitor the binding of compounds in a competition assay. Assays were done in […] glass bottom plates (cat. no. PS96B-G175, SWISSCI, Switzerland) using a plate reader (Insight, Evotec Technologies, Germany) fitted with a U-Apo300 40× water immersion lens, NA 1.15 (Olympus, Japan). Excitation was done with an argon-ion laser (488 nm) and a helium–neon laser (633 nm). Fluorescence fluctuations were recorded 10 times for 5 s per sample and fitted using FCS+ plus Analyze (PerkinElmer software). Initially, IC50 values were determined from the concentration of the dual labeled complex titrated against a competitor in a range of 100 pM to 100 μM (Figure S1). Then, Ki values were calculated using the Cheng Prusoff equation[31] based on the previously determined KD value for the BH267.meta-DY647 tracer.[20]
In the case of `O=C(/C=C(\O)C(F)(F)c1ccccc1)c1cccnc1` [3a, 4,4-Difluoro-3-hydroxy-4-phenyl-1-(pyridin-3-yl)but-2-en-1-one], the Ki is reported as 5840 ± 960 nM.
`COC(F)(F)C(F)(F)/C(O)=C/C(=O)c1cccnc1` [3c, 4,4,5,5-Tetrafluoro-3-hydroxy-5-methoxy-1-(pyridin-3-yl)pent-2-en-1-one] gave a Ki of 93 ± 2 nM.
In the case of `O=C(/C=C(\O)C(F)(F)C(F)(F)F)c1ccc(NCc2ccccc2)nc1` [7a, 1-[6-(Benzylamino)pyridin-3-yl]-4,4,5,5,5-pentafluoro-3-hydroxypent-2-en-1-one], the Ki is reported as 32 ± 15 nM.
In the case of `Nc1ccc(C(=O)/C=C(\O)C(F)(F)C(F)(F)F)cn1` [7b, 1-(6-Aminopyridin-3-yl)-4,4,5,5,5-pentafluoro-3-hydroxypent-2-en-1-one], the Ki is reported as 31 ± 6 nM.
In the case of `CNc1ccc(C(=O)/C=C(\O)C(F)(F)C(F)(F)F)cn1` [7c, 4,4,5,5,5-Pentafluoro-3-hydroxy-1-(6-(methylamino)pyridin-3-yl)pent-2-en-1-one], the Ki is reported as 36 ± 12 nM.
`CCNc1ccc(C(=O)/C=C(\O)C(F)(F)C(F)(F)F)cn1` [7d, 1-(6-(Ethylamino)pyridin-3-yl)-4,4,5,5,5-pentafluoro-3-hydroxypent-2-en-1-one] showed a Ki of 21 ± 5 nM.

Same assay, conditions: competition against BH267.meta-DY647 tracer, Cheng Prusoff; read-out: Ki (FCCS, protein)
`O=C(/C=C(\O)C(F)(F)C(F)(F)C(F)(F)F)c1cccnc1` [3b, 4,4,5,5,6,6,6-Heptafluoro-3-hydroxy-1-(pyridin-3-yl)hex-2-en-1-on] was tested, and the Ki was 30 ± 3 nM.

These molecules were tested against T1, PfFNT (assay: Yeast-based PfFNT 14C-lactate transport assay). Conditions: not given.
Type: cell-based
Protocol: Lactate transport functionality of PfFNT was assayed as described before.[4] Briefly, Saccharomyces cerevisiae W303-1A jen1Δady2Δcells[32] (MATa, can1-100, ade2-loc, his3-11-15, leu2-3,-112, trp1-1-1, ura3-1, jen1::kanMX4, ady2::hphMX4) kindly provided by M. Casal expressing PfFNT was grown at 29 °C to an OD600 of 1 (±0.1). Harvested cells were resuspended to an OD600 of 50 (±5) in 50 mM HEPES/Tris, pH 6.8 (±0.1). 10–15 min prior to the assay, 80 μL of yeast suspension were added to 1 μL of DMSO with or without inhibitor in a 1.5 mL reaction tube at 18 °C. Twenty μL of L-lactate solution spiked with [1-^14C]-L-lactate (Hartmann Analytic) was added yielding a 1 mM inward gradient with 0.04 μCi label. Transport was stopped after 30 s by abrupt dilution with 1 mL of ice-cold water, vacuum filtration via GF/C filter membranes (Whatman), and washing with 7 mL of ice-cold water. The radio label was analyzed by liquid scintillation counting in 3 mL of scintillation cocktail (Rotiszint eco plus, Carl Roth) using a Packard TriCarb 2900 TR (PerkinElmer Inc.).
Transport assays in yeast were done in triplicate biological replicates. At least nine technical replicates were measured around the IC50 value, concentrations with no or full inhibition were determined from at least three technical replicates. EC50-values were determined from 2 to 4 biological replicates. IC50 and EC50 curves were fitted by the Hill equation with variable slope (Graph Pad Prism 10). Error bars denote ± SEM (for n ≥ 3) or ± range (for n = 2). For the EC50-value of 7a the error of the fitting of the curve is given. Cytotoxicity was determined from biological triplicates; error is shown as SEM.
Work on `O=C(/C=C(\O)C(F)(F)C(F)(F)C(F)(F)F)c1cccnc1` [3b, 4,4,5,5,6,6,6-Heptafluoro-3-hydroxy-1-(pyridin-3-yl)hex-2-en-1-on] yielded an IC50 of 340 ± 50 nM.

Same assay, conditions: 14C-lactate transport, PfFNT wild type; read-out: IC50 (transport, yeast)
Work on `O=C(/C=C(\O)C(F)(F)c1ccccc1)c1cccnc1` [3a, 4,4-Difluoro-3-hydroxy-4-phenyl-1-(pyridin-3-yl)but-2-en-1-one] yielded an IC50 of 1140 ± 200 nM.
`COC(F)(F)C(F)(F)/C(O)=C/C(=O)c1cccnc1` [3c, 4,4,5,5-Tetrafluoro-3-hydroxy-5-methoxy-1-(pyridin-3-yl)pent-2-en-1-one] was tested, and the IC50 was 310 ± 10 nM.
With `O=C(/C=C(\O)C(F)(F)C(F)(F)F)c1ccc(NCc2ccccc2)nc1` [7a, 1-[6-(Benzylamino)pyridin-3-yl]-4,4,5,5,5-pentafluoro-3-hydroxypent-2-en-1-one] the IC50 was 510 ± 150 nM.
With `Nc1ccc(C(=O)/C=C(\O)C(F)(F)C(F)(F)F)cn1` [7b, 1-(6-Aminopyridin-3-yl)-4,4,5,5,5-pentafluoro-3-hydroxypent-2-en-1-one] the IC50 was 190 ± 20 nM.
`CNc1ccc(C(=O)/C=C(\O)C(F)(F)C(F)(F)F)cn1` [7c, 4,4,5,5,5-Pentafluoro-3-hydroxy-1-(6-(methylamino)pyridin-3-yl)pent-2-en-1-one] was tested, and the IC50 was 130 ± 20 nM.
For `CCNc1ccc(C(=O)/C=C(\O)C(F)(F)C(F)(F)F)cn1` [7d, 1-(6-(Ethylamino)pyridin-3-yl)-4,4,5,5,5-pentafluoro-3-hydroxypent-2-en-1-one], the IC50 was 120 ± 10 nM.
